The test system of assay [1] is Klebsiella pneumoniae. It is filed as cell-based. The following applies: Klebsiella pneumoniae HM-44; CAA supplemented with human serum. How it is done:
(§1) Determination of Minimal Inhibitory Concentrations (MIC).
(§2) Additional MIC testing was performed for several peptides against the ESKAPE pathogens Escherichia coli, Enterobacter cloacae, Klebsiella pneumoniae, and Acinetobacter baumannii, in CAA supplemented with human serum (Table D).

Assay [2] relates to carbapenem-resistant P. aeruginosa clinical isolate CFS-1292. The experiment in a line: MIC by modified CLSI broth microdilution against P. aeruginosa CFS-1292 (CAA, CAA + human serum). The following applies: for MIC (μg/mL) against CFS-1292 in 100% CAA (1st run/2nd run): 1st run or single value. It is filed as cell-based, Pseudomonas aeruginosa. In general terms: Dilution methods test growth across graded concentrations, often in twofold steps.

The test system of assay [3] is Escherichia coli. As to the kind of experiment: microbe, parasite or virus in culture. It is filed as cell-based. To be noted: Escherichia coli ATCC 25922; CAA supplemented with human serum. As to the method:
as §1, §2

The subject of assay [4] is Enterobacter cloacae. The experiment in a line: microbe, parasite or virus in culture. The following applies: Enterobacter cloacae ATCC 13047; CAA supplemented with human serum. It is filed as cell-based. As to the method: as §1, §2
Assay [5] relates to M. smegmatis. The experiment in a line: 45 hr MIC against M. smegmatis (NTM), Mueller Hinton broth. It is filed as cell-based, Mycobacterium smegmatis. The following applies: M. smegmatis MC^2 155, Run #1.
Assay [6] relates to Acinetobacter baumannii. The experiment in a line: microbe, parasite or virus in culture. The following applies: Acinetobacter baumannii ATCC BAA 747; CAA supplemented with human serum. Format: cell-based.
A short description of assay [7]: Stability assessment in 100% CAA. It is filed as in vitro ADME. Also on record: unit not given beside the values. As to the method: Stability was assessed after incubation in 100% human serum at 37° C. after 10 minutes, 1 hour, and 2 hours.
Stability assessment was further conducted in 100% CAA and rabbit serum using the same methodology discussed above.

Assay [8] has as its system P. aeruginosa strain CFS-1292. The experiment in a line: Checkerboard assay (FICI) with antibiotics, P. aeruginosa. To be noted: for Antibiotic FIC: P. aeruginosa CFS-1292; for Antibiotic MIC in checkerboard: P. aeruginosa CFS-1292, CAA + […] human serum. It is filed as cell-based, Pseudomonas aeruginosa. As to the method: Any known method to assess MIC may be used.
Checkerboards are constructed by first preparing columns of e.g., a 96-well polypropylene microtiter plate, wherein each well has the same amount of antibiotic diluted 2-fold along the horizontal axis. […] Bacteria are added to the drug combinations at concentrations of 1×10^5 […] in CAA, for example, with or without human serum or pulmonary surfactant. […] Summation fractional inhibitory concentrations (ΣFICs) are calculated for each drug and the minimum ΣFIC value (ΣFICmin) is used to determine the effect of the Chp peptide/antibiotic combination.
(§3) Checkerboard assays. […] Checkerboards were constructed by first preparing columns of a 96-well polypropylene microtiter plate, in which each well had the same amount of antibiotic diluted 2-fold along the horizontal axis. […] Summation fractional inhibitory concentration index (FICIs) were calculated for each drug and the minimum FICI was used to determine synergy. FICIs were calculated as follows: FICI=FIC A+FIC B, where FIC A is the MIC of each antibiotic in the combination/MIC of the each antibiotic alone, and FIC B is the MIC of each Chp peptide in the combination/MIC of each Chp peptide alone. The combination is considered synergistic when the FICI is ≤0.5, strongly additive when the FICI is >0.5 to <1, additive with the FICI is 1-<2, and antagonistic when the FICI is ≥2.
In the checkerboard assay, fractional inhibitory concentration index (FICI) values are calculated.

Assay [9] has as its system Acinetobacter baumannii strain 30. The experiment in a line: Checkerboard assay (FICI) with antibiotics, A. baumannii. The following applies: checkerboard. It is filed as cell-based. How it is done:
as §3
The results are shown below in Tables 22-27.

Assay [10] relates to LPS. As to the kind of experiment: Endotoxin neutralization, limulus amoebocyte lysate (LAL) enzyme assay, LPS binding. It is filed as biochemical. To be noted: LPS 0.8 EU/mL. How it is done: CHEM. […] The standard reference samples contained only LPS dissolved in pyrogen-free water. Solutions were mixed well and incubated at 24° C. for 1 hour, and the manufacturers' test procedure for quantitative detection of endotoxins was followed.

Assay [11] deals with Klebsiella pneumoniae strain 1139. As to the kind of experiment: Checkerboard assay (FICI) with antibiotics, K. pneumoniae. It is filed as cell-based. The following applies: for Antibiotic FIC / Antibiotic MIC: checkerboard. How it is done: as §3

For “MAGKKMVSKGKDRQIFRKTADRTKKMNVRPLLYRGGIRL [Chp12]”, the MIC in [1] amounted to 16 µg/mL; in [3] it was 8 µg/mL; in assay [4], 32 µg/mL; in [6] it was 1 µg/mL. The “MIC (μg/mL) against CFS-1292 in 100% CAA (1st run/2nd run)” value (shortened to “MIC (μg/mL) against CFS-1292 in 100% CAA”) in assay [2] stood at 8 µg/mL. Besides, in assay [5], the “45 hr MIC” value came to 64 µg/mL. Further, the “MIC (100% CAA)” value in assay [7] is given as 8.

In the case of “MAKKMTKGKDRQVFRKTADRTKKLNVRPLLYRGGIRL [Chp11]”, the MIC in assay [1] came out at 16 µg/mL; in assay [3], 2 µg/mL; in [4], 32 µg/mL; in assay [6], 32 µg/mL. In addition, the “MIC (μg/mL) against CFS-1292 in 100% CAA” value in assay [2] was 16 µg/mL. Further, the “MIC (μg/mL) against CFS-1292 in CAA + […] human serum” value (“MIC (μg/mL) against CFS-1292 in CAA +” below) in assay [2] is 4 µg/mL. For the same substance, the “45 hr MIC” value in assay [5] turned out to be 32 µg/mL. In addition, the “MIC (100% CAA)” value in [7] is 16.

As for “MAKRHKIPQRASQHSFTRHAQKVHPKNVPRLPMRGGIRL [AVQ244]”, the “MIC (μg/mL) against CFS-1292 in 100% CAA” value in assay [2] came to 64 µg/mL. Moreover, in assay [5], the “45 hr MIC” value was found to be 64 µg/mL. Moreover, the “MIC (100% CAA)” value in assay [7] is on record as 64.

Take “MCKKVCKKCPKKGPKNAPKIGAFYERKTPRLKQST [CPAR39]”: the “MIC (μg/mL) against CFS-1292 in 100% CAA” value in [2] is 4 µg/mL. Moreover, the “MIC (μg/mL) against CFS-1292 in CAA +” value in [2] turned out to be 1 µg/mL; in [2] (listed as CPAR39 + DTT), 4 µg/mL; in assay [2] (listed as CPAR39 − DTT), 64 µg/mL. Also, the “45 hr MIC” value in assay [5] is over 128 µg/mL. Further, in assay [7], the “MIC (100% CAA)” value is 4.

Consider “MKRKPMSRKASQKTFKKNTGVQRMNHLNPRAMRGGIRL [Bdp1]”, for which the MIC in assay [1], in [3], in [4] and in [6] was over 32 µg/mL throughout. The “MIC (μg/mL) against CFS-1292 in 100% CAA” value in assay [2] was determined as 16 µg/mL. Also, the “MIC (μg/mL) against CFS-1292 in CAA +” value in assay [2] is over 32 µg/mL. In assay [5], the “45 hr MIC” value came out at 32 µg/mL. In addition, the “MIC (100% CAA)” value in assay [7] came to 16.

As to “MKRRKMTRKGSKRLFTATADKTKSINTAPPPMRGGIRL [Chp7]”, the MIC in [1] was 1 µg/mL; in assay [3], 8 µg/mL; in [4], over 32 µg/mL; in assay [6] it was over 32 µg/mL. The “MIC (μg/mL) against CFS-1292 in 100% CAA” value in [2] was determined as 16 µg/mL. Also, the “MIC (μg/mL) against CFS-1292 in CAA +” value in assay [2] is 1 µg/mL. Moreover, the “45 hr MIC” value in assay [5] turned out to be 128 µg/mL. Moreover, the “MIC (100% CAA)” value in assay [7] stood at 8.

As for “MRRYNVNKGKSAKKFRKQVSKTKVANLRSNPMRGGWRL [Unp6]”, the “45 hr MIC” value in [5] is 16 µg/mL. The “MIC (100% CAA)” value in [7] came out at 8.

As to “MSKKASRKSFTKGAVKVHKKNVPTRVPMRGGIRL [Gkh2]”, the MIC in assay [1] is 16 µg/mL; in assay [3] it was 1 µg/mL; in [4] it was 8 µg/mL; in assay [6], 8 µg/mL. In addition, the “MIC (μg/mL) against CFS-1292 in 100% CAA” value in assay [2] was 16 µg/mL. In addition, in [5], the “45 hr MIC” value was determined as 32 µg/mL. In assay [7], the “MIC (100% CAA)” value came out at 16.

“MSSTLCRWAVKALRCTRVYKEFIWKPLVALSYVTLYLLSSVFLSQLSYPIGSWAV [Lvp1]”: in assay [2], the “MIC (μg/mL) against CFS-1292 in 100% CAA” value is over 64 µg/mL and the “MIC (μg/mL) against CFS-1292 in CAA +” value stood at 0.5 µg/mL. For the same substance, the “MIC (μg/mL) against CFS-1292 in CAA +” value in assay [2] (listed as Lvp1 + DTT) came to 2 µg/mL. Besides, in [5], the “45 hr MIC” value is over 128 µg/mL. In assay [7], the “MIC (100% CAA)” value is over 64.

For “MTKRDIEYRKALGLNPSEPLPKIVGAVTRHGATLKRPRVTALAR [SBR77]”, in assay [2], the “MIC (μg/mL) against CFS-1292 in 100% CAA” value is 4 µg/mL and the “MIC (μg/mL) against CFS-1292 in CAA +” value was over 16 µg/mL. Moreover, the “MIC (μg/mL) against CFS-1292 in CAA +” value in assay [2] (listed as SBR77 (Sbr1)) came to 0.5 µg/mL. Moreover, in assay [5], the “45 hr MIC” value was over 64 µg/mL. The “MIC (100% CAA)” value in [7] is over 64.

In the case of colistin [reference compound], the “Antibiotic FIC” value stood at 0.25 in [8] (combined with Chp2-M1); 0.25 in [8] (combined with Chp2); 0.25 in assay [8] (combined with Chp4-M1); 0.25 in [8] (combined with Chp6-M1); 0.25 in assay [8] (combined with Unp2-M1); 0.5 in assay [9] (in combination with Chp2-M1). Further, the “Antibiotic FIC” value in assay [9] (in combination with Chp4-M1) worked out at 0.5; in [9] (in combination with Chp6-M1) it was 0.25; in [9] (in combination with Chp10-M1), 0.25; in [9] (in combination with Unp2-M1) it was 0.5; in [11] (in combination with Chp4-M1), 0.25; in [11] (in combination with Chp10-M1) it was 0.25. The “Antibiotic MIC in checkerboard” value in [8] (combined with Chp2-M1) worked out at 0.01562 µg/mL; in assay [8] (combined with Chp2) it was 0.01562 µg/mL; in assay [8] (combined with Chp4-M1), 0.03125 µg/mL; in assay [8] (combined with Chp6-M1), 0.01562 µg/mL; in [8] (combined with Chp10-M1) it was 0.007806 µg/mL; in assay [8] (combined with Unp2-M1), 0.01562 µg/mL. For the same substance, the “Antibiotic MIC in checkerboard” value turned out to be 0.007812 µg/mL in [11] (combined with Chp2) and 0.01562 µg/mL in assay [11] (combined with Chp2-M1). For the same substance, the “Antibiotic MIC” value was found to be 0.0009766 µg/mL in assay [9] (in combination with Chp2); 0.003906 µg/mL in assay [9] (in combination with Chp4-M1); 0.0009766 µg/mL in assay [9] (in combination with Chp10-M1); 0.03125 µg/mL in [11] (in combination with Chp4-M1); 0.01562 µg/mL in assay [11] (in combination with Chp6-M1); 0.03125 µg/mL in assay [11] (in combination with Chp10-M1). Moreover, the “Antibiotic MIC” value in assay [11] (in combination with Unp2-M1) turned out to be 0.03125 µg/mL. Further, in [10] ([…]-64 μg/mL, 24° C., 1 hour), the LPS binding result was “dose-dependent increases in LPS binding”. Besides, the “% LPS Bound” value in [10] (peptide concentration 0.5 μg/mL) is on record as 22.5%; in [10] (peptide concentration 1 μg/mL) it was 51.9%; in assay [10] (peptide concentration 2 μg/mL), 74.2%; in [10] (peptide concentration 4 μg/mL) it was 88.2%; in [10] (peptide concentration 8 μg/mL) it was 92.4%; in assay [10] (peptide concentration 16 μg/mL), 92.8%. In addition, the entries for the “% LPS Bound” value in assay [10] (peptide concentration 32 μg/mL) and in [10] (peptide concentration 64 μg/mL) were 92.2% and 93.4%, respectively.

Values taken from patent US20220401514A1, “ANTIMICROBIAL, BACTERIOPHAGE-DERIVED POLYPEPTIDES AND THEIR USE AGAINST GRAM-NEGATIVE AND ACID-FAST BACTERIA” (CONTRAFECT CORPORATION, priority 2019, published 2022).
